Among the data in patent US10875876B2, “Cyclized sulfamoylarylamide derivatives and the use thereof as medicaments for the treatment of hepatitis B” (priority 2015, dated 2020) are EC50 and CC50 values, retold here.

Series [1] deals with HBV. As to the kind of experiment: anti HBV activity, HepG2.117 cell line, intracellular HBV DNA by realtime PCR. Type of series: cell-based. As to conditions: HepG2.117 cell line (Tet-off), 3 days of treatment, intracellular HBV DNA quantified by realtime PCR, read-out: HBV-AVE-HepG2.117 EC50. On the procedure:
The anti HBV activity was measured using the HepG2.117 cell line, a stable, inducibly HBV producing cell line, which replicates HBV in the absence of doxicycline (Tet-off system). For the antiviral assay, HBV replication was induced, followed by a treatment with serially diluted compound in 96-well plates in duplicate. After 3 days of treatment, the antiviral activity was determined by quantification of intracellular HBV DNA using realtime PCR and an HBV specific primer set and probe.

The nature of series [2]: Cytotoxicity in HepG2 cells, Resazurin assay. The settings on record: human, HepG2 cells, TOX-HepG2-4 d CC50 (μM), HepG2 cells incubated for 4 days, viability by Resazurin assay. (In general: Resazurin is reduced to fluorescent resorufin, in cell work by metabolically active cells.)
The mark [3] stands for this setting: Hepatitis B virus, HepG2.117, 72 h.

Read-outs that look alike come from different tables or passages of the source.

The term EC50 denotes the concentration that produces a half-maximal response. A word on the CC50: it is the concentration giving 50% cytotoxicity. A high value points to lower toxicity to the cells. Consider `Cn1cc2c(c1C(=O)Nc1ccnc(C(F)(F)F)c1)CCC(C(F)(F)F)NS2(=O)=O` (racemic) [Compound 59, 7-methyl-1,1-dioxo-3-(trifluoromethyl)-N-[2-(trifluoromethyl)-4-pyridyl]-2,3,4,5-tetrahydropyrrolo[3,4-f]thiazepine-6-carboxamide], for which the half-maximal effective concentration (EC50) in series [1] (setting [3]) was 0.24 µM. Besides, the CC50 at 4 days in series [2] was > 25 µM.

Take `Cn1cc2c(c1C(=O)Nc1ccc(F)c(C#N)c1)CCC(C(F)(F)F)NS2(=O)=O` (racemic) [Compound 60, N-(3-cyano-4-fluoro-phenyl)-7-methyl-1,1-dioxo-3-(trifluoromethyl)-2,3,4,5-tetrahydropyrrolo[3,4-f]thiazepine-6-carboxamide]: the EC50 in series [1] (setting [3]) was found to be 0.013 µM. Further, in series [2], the CC50 at 4 days was > 25 µM.

For the molecule `Cn1cc2c(c1C(=O)Nc1ccc(F)c(F)c1)OCC(C)(c1cnccn1)NS2(=O)=O` (racemic) [Compound 145, N-(3,4-difluorophenyl)-3,7-dimethyl-1,1-dioxo-3-pyrazin-2-yl-2,4-dihydropyrrolo[3,4-b][1,4,5]oxathiazepine-6-carboxamide], the EC50 in series [1] (setting [3]) turned out to be 0.037 µM. Also, the CC50 at 4 days in series [2] was > 25 µM.

For the molecule `Cn1cc2c(c1C(=O)Nc1ccc(F)c(F)c1)OCC(C)(c1ncccn1)NS2(=O)=O` (racemic) [Compound 153, N-(3,4-difluorophenyl)-3,7-dimethyl-1,1-dioxo-3-pyrimidin-2-yl-2,4-dihydropyrrolo[3,4-b][1,4,5]oxathiazepine-6-carboxamide], in series [1] (setting [3]), the EC50 turned out to be 0.068 µM. For the same molecule, the CC50 at 4 days in series [2] was > 25 µM.

In the case of `Cn1cc2c(c1C(=O)Nc1ccc(F)c(F)c1)OCC(C)(c1ncco1)NS2(=O)=O` (racemic) [Compound 160, N-(3,4-difluorophenyl)-3,7-dimethyl-3-oxazol-2-yl-1,1-dioxo-2,4-dihydropyrrolo[3,4-b][1,4,5]oxathiazepine-6-carboxamide], the EC50 in series [1] (setting [3]) came out at 0.0145 µM. The CC50 at 4 days in series [2] was > 25 µM.

On to `Cc1cc(CC2(C)COc3c(cn(C)c3C(=O)Nc3ccc(F)c(F)c3)S(=O)(=O)N2)no1` (racemic) [Compound 162, N-(3,4-difluorophenyl)-3,7-dimethyl-3-[(5-methylisoxazol-3-yl)methyl]-1,1-dioxo-2,4-dihydropyrrolo[3,4-b][1,4,5]oxathiazepine-6-carboxamide], for which, in series [1] (setting [3]), the EC50 was determined as 0.003 µM. Also, the CC50 at 4 days in series [2] is > 25 µM.

For the molecule `Cn1ccc(CC2(C)COc3c(cn(C)c3C(=O)Nc3ccc(F)c(F)c3)S(=O)(=O)N2)n1` (racemic) [Compound 167, N-(3,4-difluorophenyl)-3,7-dimethyl-3-[(1-methylpyrazol-3-yl)methyl]-1,1-dioxo-2,4-dihydropyrrolo[3,4-b][1,4,5]oxathiazepine-6-carboxamide], in series [1] (setting [3]), the EC50 turned out to be 0.041 µM. Besides, the cytotoxic concentration (CC50) at 4 days in series [2] was > 25 µM.

`Cc1cccc(C2(C)COc3c(cn(C)c3C(=O)Nc3ccc(F)c(F)c3)S(=O)(=O)N2)n1` (racemic) [Compound 168, N-(3,4-difluorophenyl)-3,7-dimethyl-3-(6-methyl-2-pyridyl)-1,1-dioxo-2,4-dihydropyrrolo[3,4-b][1,4,5]oxathiazepine-6-carboxamide]: the EC50 in series [1] (setting [3]) was found to be 0.025 µM. In addition, the CC50 at 4 days in series [2] was > 25 µM.

Take `Cc1cc(CC2(C)COc3c(cn(C)c3C(=O)Nc3ccc(F)c(F)c3)S(=O)(=O)N2)n(C)n1` (racemic) [Compound 175, N-(3,4-difluorophenyl)-3-[(2,5-dimethylpyrazol-3-yl)methyl]-3,7-dimethyl-1,1-dioxo-2,4-dihydropyrrolo[3,4-b][1,4,5]oxathiazepine-6-carboxamide]: the EC50 in series [1] (setting [3]) worked out at 0.004 µM. The CC50 at 4 days in series [2] was > 25 µM.

As to `Cc1cc(CC2(C)COc3c(cn(C)c3C(=O)Nc3ccc(F)c(C(F)F)c3)S(=O)(=O)N2)n(C)n1` (racemic) [Compound 176, N-[3-(difluoromethyl)-4-fluoro-phenyl]-3-[(2,5-dimethylpyrazol-3-yl)methyl]-3,7-dimethyl-1,1-dioxo-2,4-dihydropyrrolo[3,4-b][1,4,5]oxathiazepine-6-carboxamide], the EC50 in series [1] (setting [3]) came out at 0.004 µM. For the same molecule, in series [2], the CC50 at 4 days is > 25 µM.

For the molecule `Cc1cc(C2(C)COc3c(cn(C)c3C(=O)Nc3ccc(F)c(C(F)F)c3)S(=O)(=O)N2)no1` (racemic) [Compound 181, N-[3-(difluoromethyl)-4-fluoro-phenyl]-3,7-dimethyl-3-(5-methylisoxazol-3-yl)-1,1-dioxo-2,4-dihydropyrrolo[3,4-b][1,4,5]oxathiazepine-6-carboxamide], in series [1] (setting [3]), the concentration giving a half-maximal response (EC50) came out at 0.008 µM. The CC50 at 4 days in series [2] was > 25 µM.

On to `Cn1ccc(C2(C)COc3c(cn(C)c3C(=O)Nc3ccc(F)c(F)c3)S(=O)(=O)N2)n1` (racemic) [Compound 192, N-(3,4-difluorophenyl)-3,7-dimethyl-3-(1-methylpyrazol-3-yl)-1,1-dioxo-2,4-dihydropyrrolo[3,4-b][1,4,5]oxathiazepine-6-carboxamide], for which, in series [1] (setting [3]), the concentration giving a half-maximal response (EC50) came to 0.056 µM. Besides, in series [2], the CC50 at 4 days is > 25 µM.

As to `Cn1cc2c(c1C(=O)Nc1ccc(F)c(Cl)c1)OCC1(CCOC1)NS2(=O)=O` (racemic) [Compound 212, N-(3-chloro-4-fluoro-phenyl)-7-methyl-1,1-dioxo-spiro[2,4-dihydropyrrolo[3,4-b][1,4,5]oxathiazepine-3,3′-tetrahydrofuran]-6-carboxamide], the EC50 in series [1] (setting [3]) amounted to 0.007 µM. Also, the CC50 at 4 days in series [2] was > 25 µM.

As for `CC1C=Cc2c(cn(C)c2C(=O)Nc2ccc(F)c(F)c2)S(=O)(=O)N1` (single isomer, unassigned) [Compound 7a, N-(3,4-difluorophenyl)-3,7-dimethyl-1,1-dioxo-2,3-dihydropyrrolo-[3,4-f]thiazepine-6-carboxamide], in series [1], the EC50 was 0.13 µM. For the same molecule, the CC50 at 4 days in series [2] was > 25 µM.

Take `CC1CCc2c(cn(C)c2C(=O)Nc2ccc(F)c(F)c2)S(=O)(=O)N1` (single isomer, unassigned) [Compound 10a, N-(3,4-difluorophenyl)-3,7-dimethyl-1,1-dioxo-2,3,4,5-tetrahydropyrrolo[3,4-f]thiazepine-6-carboxamide]: in series [1], the EC50 is 0.22 µM. In addition, the CC50 at 4 days in series [2] was > 25 µM.

Turning to `CC1COc2c(cn(C)c2C(=O)Nc2ccc(F)c(F)c2)S(=O)(=O)N1` (single isomer, unassigned) [Compound 14a, N-(3,4-difluorophenyl)-3,7-dimethyl-1,1-dioxo-3,4-dihydro-2H-pyrrolo-[3,4-b][1,4,5]oxathiazepine-6-carboxamide], the EC50 in series [1] worked out at 0.25 µM. For the same molecule, in series [2], the CC50 at 4 days is > 25 µM.

Regarding `CC1C/C=C\c2c(cn(C)c2C(=O)Nc2ccc(F)c(F)c2)S(=O)(=O)N1` (single isomer, unassigned) [Compound 15a, (5Z)—N-(3,4-difluorophenyl)-3,8-dimethyl-1,1-dioxo-3,4-dihydro-2H-pyrrolo[3,4-g]thiazocine-7-carboxamide], the EC50 in series [1] is 0.078 µM. Besides, the CC50 at 4 days in series [2] was > 25 µM.

On to `CC1C=Cc2c(cn(C)c2C(=O)Nc2cc(F)c(F)c(F)c2)S(=O)(=O)N1` (single isomer, unassigned) [Compound 29, (*S)-3,7-dimethyl-1,1-dioxo-N-(3,4,5-trifluorophenyl)-2,3-dihydropyrrolo[3,4-f]thiazepine-6-carboxamide], for which the 50% effective concentration (EC50) in series [1] (setting [3]) was found to be 0.005 µM. For the same molecule, the CC50 at 4 days in series [2] is > 25 µM.

For `C[C@H]1C=Cc2c(cn(C)c2C(=O)Nc2ccc(F)c(C(F)(F)F)c2)S(=O)(=O)N1` (single isomer, unassigned) [Compound 30, (*S)—N-[4-fluoro-3-(trifluoromethyl)phenyl]-3,7-dimethyl-1,1-dioxo-2,3-dihydropyrrolo[3,4-f]thiazepine-6-carboxamide], the EC50 in series [1] (setting [3]) is 0.013 µM. For the same molecule, in series [2], the CC50 at 4 days is > 25 µM.

`Cc1cc(NC(=O)c2c3c(cn2C)S(=O)(=O)N[C@@H](C)C=C3)ccc1F` (single isomer, unassigned) [Compound 31, (*S)—N-(4-fluoro-3-methyl-phenyl)-3,7-dimethyl-1,1-dioxo-2,3-dihydropyrrolo[3,4-f]thiazepine-6-carboxamide]: the EC50 in series [1] (setting [3]) was 0.009 µM. In series [2], the CC50 at 4 days is > 25 µM.

Turning to `C[C@H]1C=Cc2c(cn(C)c2C(=O)Nc2ccc(F)c(C#N)c2)S(=O)(=O)N1` (single isomer, unassigned) [Compound 32, (*S)—N-(3-cyano-4-fluoro-phenyl)-3,7-dimethyl-1,1-dioxo-2,3-dihydropyrrolo[3,4-f]thiazepine-6-carboxamide], the EC50 in series [1] (setting [3]) stood at 0.003 µM. Moreover, the CC50 at 4 days in series [2] was > 25 µM.

Take `Cc1cc(CC2(C)COc3c(cn(C)c3C(=O)Nc3cc(F)c(F)c(F)c3)S(=O)(=O)N2)no1` (single isomer, unassigned) [Compound 170a, 3,7-dimethyl-3-[(5-methylisoxazol-3-yl)methyl]-1,1-dioxo-N-(3,4,5-trifluorophenyl)-2,4-dihydropyrrolo[3,4-b][1,4,5]oxathiazepine-6-carboxamide]: the CC50 at 4 days in series [2] was > 25 µM.

Turning to `Cc1cccc(C2(C)COc3c(cn(C)c3C(=O)Nc3ccc(F)c(C(F)F)c3)S(=O)(=O)N2)n1` (single isomer, unassigned) [Compound 177a, N-[3-(difluoromethyl)-4-fluoro-phenyl]-3,7-dimethyl-3-(6-methyl-2-pyridyl)-1,1-dioxo-2,4-dihydropyrrolo[3,4-b][1,4,5]oxathiazepine-6-carboxamide], the CC50 at 4 days in series [2] is > 25 µM.

Regarding `Cn1cc2c(c1C(=O)Nc1ccc(F)c(F)c1)C=CC(C)(Cc1ccc(Cl)nc1)NS2(=O)=O` (stereo not drawn) [Compound 219, 3-[(6-chloro-3-pyridyl)methyl]-N-(3,4-difluorophenyl)-3,7-dimethyl-1,1-dioxo-2H-pyrrolo[3,4-f]thiazepine-6-carboxamide], the CC50 at 4 days in series [2] is > 25 µM.
